Results taken from patent publication US12077503B2, “Substituted cyclic amides and their use as herbicides” (FMC CORPORATION, priority 2015, dated 2024).

Assays:
Type in all cases: in vivo
[1] = tested on: barnyardgrass (Echinochloa crus-galli); assay: Test C flooded paddy test; conditions: Flood, 0 is no effect, 100 is complete control
How it was run: (§1)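 Plants grown to the 2-leaf stage in pots flooded to 3 cm above soil; compounds applied directly into the paddy water, depth held throughout. After 13 to 15 d in greenhouse, injury visually rated against untreated controls on a 0–100 scale (0 no effect, 100 complete control).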

[2] = tested on: sedge, umbrella (small-flower umbrella sedge, Cyperus difformis); assay: Test C flooded paddy test; conditions: Flood, 0 is no effect, 100 is complete control
How it was run: as §1

[3] = tested on: ducksalad (Heteranthera limosa); assay: Test C flooded paddy test; conditions: Flood, 0 is no effect, 100 is complete control
How it was run: as §1

rice (Oryza sativa) = assay: Test C flooded paddy test; conditions: Flood, 0 is no effect, 100 is complete control
How it was run: as §1

[4] = tested on: field bindweed (Convolvulus arvensis); assay: Test E preemergence; conditions: scale 0 to 100
How it was run: (§2)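 Preemergence to seeds in silt loam, or postemergence to 1- to 4-leaf plants in peat-based potting mix; compound formulated in non-phytotoxic solvent plus surfactant. Greenhouse, 14–21 d. Visual injury vs. controls, 0 = no effect, 100 = complete control.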

[5] = tested on: horseweed (Conyza canadensis); assay: Test E preemergence; conditions: 31 g ai/ha, scale 0 to 100
How it was run: as §2

[6] = tested on: Panicum, fall (fall Panicum, Panicum dichotomiflorum); assay: Test E preemergence; conditions: scale 0 to 100
How it was run: as §2

[7] = tested on: crabgrass, large (large crabgrass, Digitaria sangumnalis); assay: Test E preemergence; conditions: scale 0 to 100
How it was run: as §2

[8] = tested on: foxtail, green (green foxtail, Setaria viridis); assay: Test E preemergence; conditions: scale 0 to 100
How it was run: as §2

[9] = tested on: morningglory (Ipomoea coccinea); assay: Test E preemergence; conditions: scale 0 to 100
How it was run: as §2

[10] = tested on: velvetleaf (Abutilon theophrasti); assay: Test E preemergence; conditions: scale 0 to 100
How it was run: as §2

[11] = tested on: pigweed, palmer (palmer pigweed, Amaranthus palmeri); assay: Test E preemergence; conditions: scale 0 to 100
How it was run: as §2

[12] = tested on: arrowleaf Sida (Sida rhombifolia); assay: Test E preemergence; conditions: scale 0 to 100
How it was run: as §2

[13] = tested on: dayflower, VA (Virginia dayflower, Commelina virginica); assay: Test E preemergence; conditions: scale 0 to 100
How it was run: as §2

[14] = tested on: foxtail, giant (giant foxtail, Setaria faberii); assay: Test E preemergence; conditions: scale 0 to 100
How it was run: as §2

[15] = tested on: beggarticks (hairy beggarticks, Bidens pilosa); assay: Test E preemergence; conditions: scale 0 to 100
How it was run: as §2

Kochia (Kochia scoparia) = assay: Test E preemergence; conditions: scale 0 to 100
How it was run: as §2

[16] = tested on: waterhemp (common waterhemp, Amaranthus rudis); assay: Test E preemergence; conditions: scale 0 to 100
How it was run: as §2

## CN1CC(c2cccc(C(F)(F)F)c2)C(C(=O)Nc2ccccc2S(C)(=O)=O)C1=O (stereo not drawn) [Compound 637]
[1]; 31 g ai/ha
  Plant response rating (scale of 0 to 100), Barnyardgrass: 35
[1]; 62 g ai/ha
  Plant response rating (scale of 0 to 100), Barnyardgrass: 40
[1]; 125 g ai/ha
  Plant response rating (scale of 0 to 100), Barnyardgrass: 60
[1]; 250 g ai/ha
  Plant response rating (scale of 0 to 100), Barnyardgrass: 75
[2]; 31 g ai/ha
  Plant response rating (scale of 0 to 100), Sedge, Umbrella: 0
[2]; 62 g ai/ha
  Plant response rating (scale of 0 to 100), Sedge, Umbrella: 0
[2]; 125 g ai/ha
  Plant response rating (scale of 0 to 100), Sedge, Umbrella: 0
[2]; 250 g ai/ha
  Plant response rating (scale of 0 to 100), Sedge, Umbrella: 0
[3]; 31 g ai/ha
  Plant response rating (scale of 0 to 100), Ducksalad: 30
[3]; 62 g ai/ha
  Plant response rating (scale of 0 to 100), Ducksalad: 45
[3]; 125 g ai/ha
  Plant response rating (scale of 0 to 100), Ducksalad: 70
[3]; 250 g ai/ha
  Plant response rating (scale of 0 to 100), Ducksalad: 90
Rice (Oryza sativa); 31 g ai/ha
  Plant response rating (scale of 0 to 100), Rice: 15
Rice (Oryza sativa); 62 g ai/ha
  Plant response rating (scale of 0 to 100), Rice: 15
Rice (Oryza sativa); 125 g ai/ha
  Plant response rating (scale of 0 to 100), Rice: 15
Rice (Oryza sativa); 250 g ai/ha
  Plant response rating (scale of 0 to 100), Rice: 45
[4]; 31 g ai/ha
  Plant response rating: Field Bindweed: 0
[4]; 62 g ai/ha
  Plant response rating: Field Bindweed: 0
[4]; 125 g ai/ha
  Plant response rating: Field Bindweed: 0
[4]; 250 g ai/ha
  Plant response rating: Field Bindweed: 35
[5]
  Plant response rating: Horseweed: 0
[6]; 31 g ai/ha
  Plant response rating: Panicum, Fall: 0
[6]; 62 g ai/ha
  Plant response rating: Panicum, Fall: 35
[6]; 125 g ai/ha
  Plant response rating: Panicum, Fall: 90
[6]; 250 g ai/ha
  Plant response rating: Panicum, Fall: 95
[7]; 31 g ai/ha
  Plant response rating: Crabgrass, Large: 90
[7]; 62 g ai/ha
  Plant response rating: Crabgrass, Large: 95
[7]; 125 g ai/ha
  Plant response rating: Crabgrass, Large: 98
[7]; 250 g ai/ha
  Plant response rating: Crabgrass, Large: 98
[8]; 31 g ai/ha
  Plant response rating: Foxtail, Green: 65
[8]; 62 g ai/ha
  Plant response rating: Foxtail, Green: 75
[8]; 125 g ai/ha
  Plant response rating: Foxtail, Green: 95
[8]; 250 g ai/ha
  Plant response rating: Foxtail, Green: 98
[9]; 31 g ai/ha
  Plant response rating: Morningglory: 0
[9]; 62 g ai/ha
  Plant response rating: Morningglory: 0
[9]; 125 g ai/ha
  Plant response rating: Morningglory: 35
[9]; 250 g ai/ha
  Plant response rating: Morningglory: 35
[10]; 31 g ai/ha
  Plant response rating: Velvetleaf: 0
[10]; 62 g ai/ha
  Plant response rating: Velvetleaf: 0
[10]; 125 g ai/ha
  Plant response rating: Velvetleaf: 30
[10]; 250 g ai/ha
  Plant response rating: Velvetleaf: 35
[11]; 31 g ai/ha
  Plant response rating: Pigweed, Palmer: 0
[11]; 62 g ai/ha
  Plant response rating: Pigweed, Palmer: 0
[11]; 125 g ai/ha
  Plant response rating: Pigweed, Palmer: 0
[11]; 250 g ai/ha
  Plant response rating: Pigweed, Palmer: 65
[12]; 31 g ai/ha
  Plant response rating: Arrowleaf Sida: 0
[12]; 62 g ai/ha
  Plant response rating: Arrowleaf Sida: 0
[12]; 125 g ai/ha
  Plant response rating: Arrowleaf Sida: 0
[12]; 250 g ai/ha
  Plant response rating: Arrowleaf Sida: 0
[13]; 31 g ai/ha
  Plant response rating: Dayflower, VA: 0
[13]; 62 g ai/ha
  Plant response rating: Dayflower, VA: 0
[13]; 125 g ai/ha
  Plant response rating: Dayflower, VA: 0
[13]; 250 g ai/ha
  Plant response rating: Dayflower, VA: 20
[14]; 31 g ai/ha
  Plant response rating: Foxtail, Giant: 75
[14]; 62 g ai/ha
  Plant response rating: Foxtail, Giant: 95
[14]; 125 g ai/ha
  Plant response rating: Foxtail, Giant: 98
[14]; 250 g ai/ha
  Plant response rating: Foxtail, Giant: 98
[15]; 31 g ai/ha
  Plant response rating: Beggarticks: 0
[15]; 62 g ai/ha
  Plant response rating: Beggarticks: 0
[15]; 125 g ai/ha
  Plant response rating: Beggarticks: 0
[15]; 250 g ai/ha
  Plant response rating: Beggarticks: 0
Kochia (Kochia scoparia); 31 g ai/ha
  Plant response rating: Kochia: 0
Kochia (Kochia scoparia); 62 g ai/ha
  Plant response rating: Kochia: 40
Kochia (Kochia scoparia); 125 g ai/ha
  Plant response rating: Kochia: 90
Kochia (Kochia scoparia); 250 g ai/ha
  Plant response rating: Kochia: 90
[16]; 31 g ai/ha
  Plant response rating: Waterhemp: 50
[16]; 62 g ai/ha
  Plant response rating: Waterhemp: 40
[16]; 125 g ai/ha
  Plant response rating: Waterhemp: 65
[16]; 250 g ai/ha
  Plant response rating: Waterhemp: 85
